The results in this text go back to patent US20230372407A1, “METHODS FOR MODULATING TLR4 SIGNALING” (President and Fellows of Harvard College, priority 2020, published 2023).

Where two headings read alike, the source gives them in different places.

One assay has as its system TLR4. Format: cell-based, mouse.
Assay [1] has as its system ISG expression. Kind of assay: ISG expression in mesenteric lymph nodes (qRT-PCR). Format: in vivo, mouse.
Assay [2] deals with ISG expression. The assay is described as follows: ISG expression in spleen (qRT-PCR). It is filed as in vivo, mouse.
The subject of assay [3] is ISG expression. Kind of assay: ISG / BST2 expression in BMDCs (qRT-PCR, flow cytometry). Format: cell-based, mouse.
Assay [4] in a line: Mouse autoimmune disease model. It is filed as in vivo. The conditions noted are these: dependent on IFN-I signaling; data not shown.
For a further assay, the system named is VSV-GFP. It is filed as cell-based, mouse.
Another assay deals with Human specimens. The assay is described as follows: Human specimens response to PSA. Format: cell-based.
The next assay has as its system Ifnb1 expression. The assay is described as follows: Ifnb1 expression by lamina propria DCs (qRT-PCR). Format: in vivo, mouse. As to conditions: WT SPF mice, 150 ug oral gavage, 1.5 hrs. The procedure: To confirm the relevance of these findings in vivo, Ifnb1 expression by colon LP DCs was analyzed in WT SPF mice administered 150 ug of PSA by oral gavage.
RNA was isolated from whole tissues or the DC^+ and DC^− fractions of spleens, mLNs, and colons following manufacturer's instructions with the RNeasy mini kit (Qiagen). cDNA was prepared with the Quantitect Reverse Transcription Kit (Qiagen). qRT-PCR was performed on a QuantStudio7 Flex or Pro Real-Time PCR system (Applied Biosystems) with RT^2 SYBR Green ROX qPCR Mastermix (Qiagen). Amplification was achieved using an initial cycle of 95° C. for 10 min, followed by 40 cycles of 95° C. for 15 s and 60° C. for 1 min. Gene expression was normalized using Actb as a reference gene. The forward (f) and reverse (r) primers used to detect expression of the corresponding murine genes were as follows (SEQ ID NOs: 1-20, respectively):
Single-cell suspensions of the indicated tissues were prepared as described. DC positive and negative fractions were isolated with mouse pan-DC microbeads (Miltenyi), following the manufacturer's protocol.
GFWT C57BL/6 mice were administered B. fragilis strain NCTC 9343 or C. ramosum strain AO31 by oral gavage [200 uL, approximately 10^8-10^9 colony-forming units (CFU) per mouse]. […]

A further assay deals with VSV strain Indiana. The conditions noted are these: mouse, in vivo, po.
The test system of another assay is CD4+FOXP3+ Tregs. The assay is described as follows: Human colon biopsy cLP lymphocytes, IL-10 production by CD4+FOXP3+ Tregs. It is filed as cell-based. The conditions noted are these: total cLP lymphocytes from human colon biopsies, 6-10 days. The method, then: FIG. 13. PSA induces Tregs in cells obtained from human gut tissue biopsies. Total cLP lymphocytes from 8-10 human colon biopsies were treated with PBS, WT-OMV, DPSA-OMV, or purified PSA for 6-10 days. IL-10 production by CD4+FOXP3+ Tregs was assessed by flow cytometry and intracellular cytokine staining. ** p<0.01, One-way ANOVA. Error bars represent mean +S.E.M.

For a further assay, the system named is CD4+ T cells. Format: cell-based. The conditions noted are these: data not shown.
The next assay deals with IAV/PR8-GFP. Format: cell-based, mouse.
Where [5] appears, read: WT SPF mice + metronidazole 7 days (Table 3).
The mark [6] stands for this setting: WT SPF mice + metronidazole 7 days (Table 4).

In the case of lipooligosaccharide [LOS], the “IFNβ secretion by BMDCs” value in the assay on TLR4 (Tlr4−/− BMDCs vs WT) was “through TLR4”; in the assay on TLR4 (WT BMDCs), “dose-dependent manner”.

For `Cc1ncc([N+](=O)[O-])n1CCO` [metronidazole], in the assay on ISG expression [1] (setting [5]), the “Ifit1 mLN fold difference gene expression to WT SPF, Mean” value is 0.57 fold; the “Ifit2 mLN fold difference gene expression to WT SPF, Mean” value is on record as 0.69 fold; the “Ifit3 mLN fold difference gene expression to WT SPF, Mean” value came to 0.76 fold; the “Irf7 mLN fold difference gene expression to WT SPF, Mean” value is reported as 0.68 fold. Also, in the assay with ISG expression [1] (setting [5]), the “Mx1 mLN fold difference gene expression to WT SPF, Mean” value came to 0.78 fold; the “Oas/2 mLN fold difference gene expression to WT SPF, Mean” value worked out at 0.74 fold; the “Rsad2 mLN fold difference gene expression to WT SPF, Mean” value is 0.46 fold. Further, the “ISG expression in mLN (panel)” value in the assay on ISG expression [1] (WT mice vs WT SPF) was “significant decreases in ISG expression”. Further, in the assay on ISG expression [2] (setting [6]), the “Ifit1 Spleen fold difference gene expression to WT SPF, Mean” value turned out to be 0.57 fold; the “Ifit2 Spleen fold difference gene expression to WT SPF, Mean” value was 0.69 fold; the “Ifit3 Spleen fold difference gene expression to WT SPF, Mean” value is listed as 0.76 fold; the “Irf7 Spleen fold difference gene expression to WT SPF, Mean” value was 0.68 fold. For the same compound, in the assay on ISG expression [2] (setting [6]), the “Mx1 Spleen fold difference gene expression to WT SPF, Mean” value is reported as 0.78 fold; the “Oas/2 Spleen fold difference gene expression to WT SPF, Mean” value was found to be 0.74 fold; the “Rsad2 Spleen fold difference gene expression to WT SPF, Mean” value worked out at 0.46 fold. Further, the “ISG expression in spleen (panel)” value with ISG expression [2] (WT mice vs WT SPF) was “significant decreases in ISG expression”.

On to polysaccharide A [PSA], for which, in the assay with ISG expression [3] (Ifnar1−/− and Ifnb1−/− BMDCs vs WT), the “Surface BST2 levels” value is reported as “significantly reduced”. Moreover, in the assay with ISG expression [3] (WT BMDCs, 24 hrs, 50 ug/mL, vs vehicle), the “expression of a panel of ISGs” value is “increase in expression”. In the assay on ISG expression [3] (WT BMDCs, 24 hrs, 100 ug/mL, vs vehicle), the “BST2 mean fluorescence intensity (MFI)” value was “increased”. The “IFNβ secretion by BMDCs” value in the assay on TLR4 (Myd88−/− BMDCs, 50 ug/mL, 6 hrs) is given as “significant decrease”. Also, the “IFNβ secretion by BMDCs” value in the assay with TLR4 (Tlr2−/− BMDCs vs WT, 50 ug/mL, 6 hrs) is “no effect”. The “IFNβ secretion by BMDCs” value with TLR4 (Tlr4−/− BMDCs vs WT) is on record as “completely lost the ability to secrete IFNβ”. The “IFNβ secretion by BMDCs” value with TLR4 (Trif−/− BMDCs, 50 ug/mL, 6 hrs) is listed as “lack of increased IFNβ secretion”. Also, in the assay with TLR4 (WT BMDCs), the “IFNβ secretion by BMDCs” value is recorded as “significantly induced”. Also, in the assay with TLR4 (dectin-1 deficient (Clec7a−/−) BMDCs vs WT, 50 ug/mL, 6 hrs), the “IFNβ secretion by BMDCs” value is “no effect”. Further, the “protective effects in a mouse autoimmune disease model” value in assay [4] was “protective effects”. In addition, in the assay on VSV-GFP, the “Protection from VSV-GFP infection” value was “completely lost”, the cell viability result is “increased cell viability” and the “percentage of infected (GFP+) cells” value is “inhibited virus infection in a dose-dependent manner”. Further, in the assay with Human specimens, the “response of human specimens” value was “dose-dependent manner”. Besides, the “Ifnb1 expression by colon LP DCs” value in the assay with Ifnb1 expression is listed as “significant increase”. In the assay with VSV strain Indiana, the “daily and cumulative paralysis scores” value is “decreased”; the incidence of disease result was “decreased”; the survival entry is “enhanced survival”. Also, the “IL-10 production by CD4+FOXP3+ Tregs” value in the assay on CD4+FOXP3+ Tregs is “induces Tregs”. Besides, the “IL-10 secretion by CD4+ T cells” value in the assay with CD4+ T cells is on record as “enhance IL-10 secretion”. In the assay with IAV/PR8-GFP, the “antiviral effect against IAV/PR8-GFP” value is reported as “completely abrogated”, the cell viability entry is “increase in cell viability” and the “percentage of infected cells” value is given as “significant reduction”.
